From PubChem BioAssay AID328 (DTP/NCI, 2004)
Where “and” joins values, the source holds several entries; their conditions need not be identical. Identical values can stand only once. Toxic doses and inconclusive results are not listed.

System: BDF1 mice, P388 leukemia ip, median survival T/C
Assay: NCI In Vivo Anticancer Drug Screen. Data for tumor model P388 Leukemia (intraperitoneal) in B6D2F1 (BDF1) mice
Conditions: endpoint: median survival time, higher = longer survival
Summary of the method: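 Read-out is survival of treated animals expressed relative to the vehicle group, as a T/C ratio.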

[1] = dose: 50.0 mg/kg/injection, schedule: Q01DX009 (ip), vehicle: Klucel (hydroxypropylcellulose) (HPC)
[2] = dose: 100.0 mg/kg/injection, schedule: Q01DX009 (ip), vehicle: Klucel (hydroxypropylcellulose) (HPC)
[3] = dose: 100.0 mg/kg/injection, schedule: Q01DX009 (ip), vehicle: saline with Tween-80
[4] = dose: 200.0 mg/kg/injection, schedule: Q01DX009 (ip), vehicle: saline with Tween-80
[5] = dose: 400.0 mg/kg/injection, schedule: Q01DX009 (ip), vehicle: saline with Tween-80
[6] = dose: 0.75 mg/kg/injection, schedule: Q01DX009 (ip), vehicle: saline

With `CCOC(=O)C1C(=O)C2CCc3c(ccc4ccccc34)N2C1=O` (stereo not drawn) the T/C [1] was 100 % of control, the T/C (dose: 50.0 mg/kg/injection, schedule: Q04DX003 (ip), vehicle: Klucel (hydroxypropylcellulose) (HPC)) was 95 % of control and the T/C [2] was 110 % of control. The T/C (dose: 100.0 mg/kg/injection, schedule: Q04DX003 (ip), vehicle: Klucel (hydroxypropylcellulose) (HPC)) was 95 % of control, the T/C (dose: 200.0 mg/kg/injection, schedule: Q01DX009 (ip), vehicle: Klucel (hydroxypropylcellulose) (HPC)) was 100 % of control and the T/C (dose: 200.0 mg/kg/injection, schedule: Q04DX003 (ip), vehicle: Klucel (hydroxypropylcellulose) (HPC)) was 100 % of control.

`Nc1ccccc1-n1nc2ccc3ccccc3c2n1` was tested, and the T/C [3] was 105 % of control, the T/C (dose: 132.0 mg/kg/injection, schedule: Q01DX009 (ip), vehicle: saline with Tween-80) was 90 % of control and the T/C [4] was 100 % of control. For the same molecule, the T/C (dose: 300.0 mg/kg/injection, schedule: Q01DX009 (ip), vehicle: saline with Tween-80) was 95 % of control and the T/C [5] was 105 % of control.

For `CCOC(=N)c1cn(C2OC(CO)C(O)C2O)c2ncnc(N)c12` (stereo not drawn), the T/C (dose: 0.12 mg/kg/injection, schedule: Q01DX009 (ip), vehicle: saline with Tween-80) was 168 % of control, the T/C (dose: 0.22 mg/kg/injection, schedule: Q01DX009 (ip), vehicle: saline) was 174 % of control and the T/C (dose: 0.25 mg/kg/injection, schedule: Q01DX009 (ip), vehicle: saline with Tween-80) was 195 % of control. For the same molecule, the T/C (dose: 0.33 mg/kg/injection, schedule: Q01DX009 (ip), vehicle: saline) was 196 % of control, the T/C (dose: 0.5 mg/kg/injection, schedule: Q01DX009 (ip), vehicle: saline with Tween-80) was 163 % of control and the T/C (dose: 0.5 mg/kg/injection, schedule: Q01DX009 (ip), vehicle: saline) was 186 % of control. The T/C (dose: 0.5 mg/kg/injection, schedule: Q04DX003 (ip), vehicle: saline with Tween-80) was 150 % of control, the T/C [6] was 196 % of control and the T/C (dose: 0.8 mg/kg/injection, schedule: Q04DX003 (ip), vehicle: saline with Tween-80) was 190 % of control. For the same molecule, the T/C (dose: 1.2 mg/kg/injection, schedule: Q04DX003 (ip), vehicle: saline with Tween-80) was 272 % of control, the T/C (dose: 1.8 mg/kg/injection, schedule: Q04DX003 (ip), vehicle: saline with Tween-80) was 190 % of control and 209 % of control and the T/C (dose: 2.6 mg/kg/injection, schedule: Q04DX003 (ip), vehicle: saline with Tween-80) was 200 % of control. The T/C (dose: 6.0 mg/kg/injection, schedule: Q04DX003 (ip), vehicle: saline with Tween-80) was 90 % of control, the T/C (dose: 5.3 micrograms/kg/injection, schedule: Q01DX009 (ip), vehicle: saline) was 106 % of control and the T/C (dose: 8.0 micrograms/kg/injection, schedule: Q01DX009 (ip), vehicle: saline) was 115 % of control. The T/C (dose: 15.0 micrograms/kg/injection, schedule: Q01DX009 (ip), vehicle: saline with Tween-80) was 120 % of control, the T/C (dose: 27.0 micrograms/kg/injection, schedule: Q01DX009 (ip), vehicle: saline) was 152 % of control and the T/C (dose: 40.0 micrograms/kg/injection, schedule: Q01DX009 (ip), vehicle: saline) was 159 % of control. The T/C (dose: 60.0 micrograms/kg/injection, schedule: Q01DX009 (ip), vehicle: saline) was 169 % of control, the T/C (dose: 66.0 micrograms/kg/injection, schedule: Q01DX009 (ip), vehicle: saline) was 155 % of control and the T/C (dose: 100.0 micrograms/kg/injection, schedule: Q01DX009 (ip), vehicle: saline) was 154 % of control.

In the case of `Oc1c(Cl)cc(Cl)cc1C1N2CCCCC2C2c3cccn3-c3ccccc3N21` (stereo not drawn), the T/C [1] is reported as 93 % of control and the T/C [2] is reported as 90 % of control.

In the case of `Cc1cccnc1NC(=O)/C=C/C(=O)O`, the T/C (dose: 3.12 mg/kg/injection, schedule: Q01DX001 (ip), vehicle: saline) is reported as 100 % of control, the T/C (dose: 6.25 mg/kg/injection, schedule: Q01DX001 (ip), vehicle: saline) is reported as 100 % of control and the T/C (dose: 12.5 mg/kg/injection, schedule: Q01DX001 (ip), vehicle: saline) is reported as 100 % of control. The T/C (dose: 12.5 mg/kg/injection, schedule: Q01DX009 (ip), vehicle: saline) was 95 % of control, the T/C (dose: 12.5 mg/kg/injection, schedule: Q04DX003 (ip), vehicle: saline) was 100 % of control and the T/C (dose: 18.0 mg/kg/injection, schedule: Q01DX001 (ip), vehicle: saline) was 109 % of control. The T/C (dose: 25.0 mg/kg/injection, schedule: Q01DX009 (ip), vehicle: saline) was 100 % of control, the T/C (dose: 28.0 mg/kg/injection, schedule: Q01DX001 (ip), vehicle: saline) was 100 % of control and the T/C (dose: 40.0 mg/kg/injection, schedule: Q01DX001 (ip), vehicle: saline) was 104 % of control.

`Nc1ncn(C2OC(CO)C(O)C2O)c(=O)n1` (stereo not drawn) was tested, and the T/C (dose: 0.16 mg/kg/injection, schedule: Q01DX009 (ip), vehicle: saline) was 91 % of control, the T/C (dose: 0.25 mg/kg/injection, schedule: Q01DX009 (ip), vehicle: saline) was 116 % of control and the T/C (dose: 0.38 mg/kg/injection, schedule: Q01DX009 (ip), vehicle: saline) was 150 % of control. The T/C [6] was 181 % of control, the T/C (dose: 0.9 mg/kg/injection, schedule: Q01DX009 (ip), vehicle: saline) was 210 % of control and the T/C (dose: 1.0 mg/kg/injection, schedule: Q01DX005 (ip), vehicle: saline) was 166 % of control. The T/C (dose: 1.5 mg/kg/injection, schedule: Q01DX009 (ip), vehicle: saline) was 195 % of control and 202 % of control, the T/C (dose: 1.9 mg/kg/injection, schedule: Q01DX009 (ip), vehicle: saline) was 235 % of control and the T/C (dose: 2.0 mg/kg/injection, schedule: Q01DX005 (ip), vehicle: saline) was 201 % of control. For the same molecule, the T/C (dose: 2.2 mg/kg/injection, schedule: Q01DX009 (ip), vehicle: saline) was 235 % of control and 236 % of control and 216 % of control, the T/C (dose: 3.0 mg/kg/injection, schedule: Q01DX009 (ip), vehicle: saline) was 100 % of control and the T/C (dose: 3.3 mg/kg/injection, schedule: Q01DX009 (ip), vehicle: saline) was 260 % of control and 275 % of control and 280 % of control. For the same molecule, the T/C (dose: 4.0 mg/kg/injection, schedule: Q01DX005 (ip), vehicle: saline) was 204 % of control, the T/C (dose: 4.25 mg/kg/injection, schedule: Q04DX003 (ip), vehicle: saline) was 172 % of control and the T/C (dose: 5.0 mg/kg/injection, schedule: Q01DX009 (ip), vehicle: saline) was 254 % of control and 336 % of control and 365 % of control. The T/C (dose: 5.0 mg/kg/injection, schedule: Q04DX004 (ip), vehicle: saline) was 207 % of control, the T/C (dose: 6.0 mg/kg/injection, schedule: Q01DX009 (ip), vehicle: saline) was 104 % of control and the T/C (dose: 6.48 mg/kg/injection, schedule: Q04DX003 (ip), vehicle: saline) was 220 % of control. For the same molecule, the T/C (dose: 7.0 mg/kg/injection, schedule: Q04DX004 (ip), vehicle: saline) was 216 % of control, the T/C (dose: 7.5 mg/kg/injection, schedule: Q01DX009 (ip), vehicle: saline) was 100 % of control and the T/C (dose: 8.5 mg/kg/injection, schedule: Q01DX009 (ip), vehicle: saline) was 90 % of control. For the same molecule, the T/C (dose: 10.0 mg/kg/injection, schedule: Q04DX004 (ip), vehicle: saline) was 112 % of control and 219 % of control, the T/C (dose: 10.8 mg/kg/injection, schedule: Q04DX003 (ip), vehicle: saline) was 177 % of control and the T/C (dose: 11.0 mg/kg/injection, schedule: Q04DX004 (ip), vehicle: saline) was 248 % of control. The T/C (dose: 12.0 mg/kg/injection, schedule: Q04DX003 (ip), vehicle: saline) was 225 % of control, the T/C (dose: 15.0 mg/kg/injection, schedule: Q04DX004 (ip), vehicle: saline) was 226 % of control and 106 % of control and the T/C (dose: 16.0 mg/kg/injection, schedule: Q04DX004 (ip), vehicle: saline) was 272 % of control. For the same molecule, the T/C (dose: 19.0 mg/kg/injection, schedule: Q04DX003 (ip), vehicle: saline) was 233 % of control, the T/C (dose: 20.0 mg/kg/injection, schedule: Q04DX004 (ip), vehicle: saline) was 165 % of control and the T/C (dose: 44.0 mg/kg/injection, schedule: Q01DX001 (ip), vehicle: saline) was 176 % of control. The T/C (dose: 49.0 mg/kg/injection, schedule: Q01DX001 (ip), vehicle: saline) was 170 % of control, the T/C (dose: 73.0 mg/kg/injection, schedule: Q01DX001 (ip), vehicle: saline) was 176 % of control and 182 % of control and the T/C (dose: 110.0 mg/kg/injection, schedule: Q01DX001 (ip), vehicle: saline) was 157 % of control and 190 % of control. For the same molecule, the T/C (dose: 150.0 mg/kg/injection, schedule: Q01DX001 (ip), vehicle: saline) was 120 % of control.

In the case of `O=[N+]([O-])c1ccc(NCCO)c([N+](=O)[O-])c1`, the T/C (dose: 50.0 mg/kg/injection, schedule: Q01DX009 (ip), vehicle: saline with Tween-80) is reported as 101 % of control, the T/C [3] is reported as 107 % of control and the T/C [4] is reported as 113 % of control.

`CCCCCCC(=O)/C=C/c1ccc(Cl)cc1Cl` was tested, and the T/C [3] was 109 % of control, the T/C [4] was 94 % of control and the T/C [5] was 98 % of control.
